*1 amine or outer side, *2 acyl side, *3 side chain or, on linkers, in order; H or OH if unused. Where a SMILES comes first, the peptide text is derived from it. [ ]: non-standard residue; d: D form. The star is where a group is joined. Dolaproine = CO[C@@H]([C@@H]1CCCN1)[C@@H](C)C(=O)O; Dil = CC[C@H](C)[C@H](NC)[C@@H](CC(=O)O)OC; X9 = CCN([C@@H](CO)C(=O)[*:2])[*:1]; X1 = C[C@@H](N*)[C@@H](O)c1ccccc1; Phe(ol) = N[C@H](CO)Cc1ccccc1; X6 = CN(C)[C@@H](CCO)C(=O)*; X8 = CN1C(=O)OC[C@H]1C(=O)*; NMeS = CN[C@@H](CO)C(=O)O; hSer = N[C@@H](CCO)C(=O)O
How the values were obtained:
Test in all cases: In vitro cytotoxicity, cell proliferation assay (CellTiter-Glo, 96 h)
Format in all cases: cell-based
DEL ALCL = settings: auristatin free drug
Protocol: (§1) The cytotoxicity of free drugs and drug conjugates were measured by a cell proliferation assay employing the protocol described in Promega Corp. Technical Bulletin TB288; and Mendoza et al., 2002, Cancer Res. 62:5485-5488), the methods of which are specifically incorporated by reference herein. Briefly, an aliquot of 40 μl of cell culture containing about 400 cells in medium is deposited in each well of a 384-well, opaque-walled plate. A 10 μL aliquot of free drug or drug conjugate is added to the experimental wells and incubated for 96 h and are then equilibrated to room temperature for approximately 30 minutes whereupon a volume of CellTiter-Glo™ reagent equal to the volume of cell culture medium present in each well is added. The contents are mixed for 2 minutes on an orbital shaker to induce cell lysis and the plate is incubated at room temperature for 10 minutes to stabilize the luminescence signal for recordation.

Karpas299 NHL = settings: Homo sapiens, KARPAS-299, auristatin free drug
Protocol: as §1

L540cy HL = settings: auristatin free drug
Protocol: as §1

Compound	IC50 (DEL ALCL) [nM]	IC50 (Karpas299 NHL) [nM]	IC50 (L540cy HL) [nM]
CC[C@H](C)[C@@H]([C@@H](CC(=O)N1CCC[C@H]1[C@H](OC)[C@@H](C)C(=O)N[C@@H](Cc1ccccc1)C(=O)O)OC)N(C)C(=O)[C@@H](NC(=O)[C@H](CO)NC)C(C)C [Comparative Example A, reference compound] (H-[NMeS]V[Dil][Dolaproine]F-OH)	209	253	> 1000
CC[C@H](C)[C@@H]([C@@H](CC(=O)N1CCC[C@H]1[C@H](OC)[C@@H](C)C(=O)N[C@@H](Cc1ccccc1)C(=O)O)OC)N(C)C(=O)[C@@H](NC(=O)[C@@H]1COC(=O)N1C)C(C)C [Comparative Example C, reference compound] (X8-V[Dil][Dolaproine]F-OH)	342	218	284
CC[C@H](C)[C@@H]([C@@H](CC(=O)N1CCC[C@H]1[C@H](OC)[C@@H](C)C(=O)N[C@H](CO)Cc1ccccc1)OC)N(C)C(=O)[C@@H](NC(=O)[C@H](CCO)N(C)C)C(C)C [Example 9] (X6-V[Dil][Dolaproine][Phe(ol)])	0.8	0.9	4
CC[C@H](C)[C@@H]([C@@H](CC(=O)N1CCC[C@H]1[C@H](OC)[C@@H](C)C(=O)N[C@H](C)[C@@H](O)c1ccccc1)OC)N(C)C(=O)[C@@H](NC(=O)[C@H]([C@@H](C)O)N(C)C)C(C)C [Example 10]	0.4	0.5	3
CC[C@H](C)[C@@H]([C@@H](CC(=O)N1CCC[C@H]1[C@H](OC)[C@@H](C)C(=O)N[C@H](C)[C@@H](O)c1ccccc1)OC)N(C)C(=O)[C@@H](NC(=O)[C@@H](CO)N(C)C)C(C)C [Example 11]	1	1	6
CCN[C@@H](CO)C(=O)N[C@H](C(=O)N(C)[C@@H]([C@@H](C)CC)[C@@H](CC(=O)N1CCC[C@H]1[C@H](OC)[C@@H](C)C(=O)N[C@H](CO)Cc1ccccc1)OC)C(C)C [Example 15] (H-[X9]V[Dil][Dolaproine][Phe(ol)])	0.7	2.3	3.9
CC[C@H](C)[C@@H]([C@@H](CC(=O)N1CCC[C@H]1[C@H](OC)[C@@H](C)C(=O)N[C@H](CO)Cc1ccccc1)OC)N(C)C(=O)[C@@H](NC(=O)C[C@@H](NC)[C@@H](C)O)C(C)C [Example 22]	5.8	13	16
CC[C@H](C)[C@@H]([C@@H](CC(=O)N1CCC[C@H]1[C@H](OC)[C@@H](C)C(=O)N[C@H](CO)Cc1ccccc1)OC)N(C)C(=O)[C@@H](NC(=O)[C@@H](N)CO)C(C)C [Example 23] (H-SV[Dil][Dolaproine][Phe(ol)])	17	66	662
CC[C@H](C)[C@@H]([C@@H](CC(=O)N1CCC[C@H]1[C@H](OC)[C@@H](C)C(=O)N[C@H](CO)Cc1ccccc1)OC)N(C)C(=O)[C@@H](NC(=O)[C@@H](N)CCO)C(C)C [Example 24] (H-[hSer]V[Dil][Dolaproine][Phe(ol)])	13	43	621
CC[C@H](C)[C@@H]([C@@H](CC(=O)N1CCC[C@H]1[C@H](OC)[C@@H](C)C(=O)N[C@H](CO)Cc1ccccc1)OC)N(C)C(=O)[C@@H](NC(=O)[C@@H](N)[C@@H](C)O)C(C)C [Example 25] (H-TV[Dil][Dolaproine][Phe(ol)])	18.9	62	457
CC[C@H](C)[C@@H]([C@@H](CC(=O)N1CCC[C@H]1[C@H](OC)[C@@H](C)C(=O)N[C@H](C)[C@@H](O)c1ccccc1)OC)N(C)C(=O)[C@@H](NC(=O)[C@H](N)CO)C(C)C [Example 26] (H-[dS]V[Dil][Dolaproine]-X1)	4.2	5	20
CC[C@H](C)[C@@H]([C@@H](CC(=O)N1CCC[C@H]1[C@H](OC)[C@@H](C)C(=O)N[C@H](C)[C@@H](O)c1ccccc1)OC)N(C)C(=O)[C@@H](NC(=O)[C@H](N)[C@H](C)O)C(C)C [Example 27] (H-[dT]V[Dil][Dolaproine]-X1)	1.9	2.3	13
CC[C@H](C)[C@@H]([C@@H](CC(=O)N1CCC[C@H]1[C@H](OC)[C@@H](C)C(=O)N[C@H](CO)Cc1ccccc1)OC)N(C)C(=O)[C@@H](NC(=O)[C@@H]1COC(=O)N1C)C(C)C [Example 36] (X8-V[Dil][Dolaproine][Phe(ol)])	6.7	27	197
CC[C@H](C)[C@@H]([C@@H](CC(=O)N1CCC[C@H]1[C@H](OC)[C@@H](C)C(=O)N[C@H](C)[C@@H](O)c1ccccc1)OC)N(C)C(=O)[C@@H](NC(=O)[C@@H]1COC(=O)N1C)C(C)C [Example 37]	> 1000	> 1000	> 1000
